Measured values: patent publication US8841452B1, “Process for recovery of nalmefene hydrochloride” (H. Lundbeck A/S, priority 2011, dated 2014)
Counter-ions that a name gives are not always drawn.

How the values were obtained:
[1] = hydrochloride salt, doses of 10 to 40 mg taken when the patient experiences a craving for alcohol; cited from earlier work
[2] = compared to naltrexone; cited from earlier work
[3] = compared to naltrexone; cited from earlier work; remark: listed apart in the source
[4] = compared to naltrexone; cited from earlier work; remark: listed apart in the source
[5] = crystalline form; improves API stability under storage and formulation conditions; cited from earlier work
[6] = solubility in aqueous medium; format: physicochemical; settings: compared to naltrexone itself
Description: Since only compounds containing a carbonyl moiety can react with the bisulfite anion nalmefene cannot undergo to such reaction. The bisulfite adduct of naltrexone is more soluble than naltrexone itself thus permitting the removal of this impurity.

For `C=C1CC[C@@]2(O)[C@H]3Cc4ccc(O)c5c4[C@@]2(CCN3CC2CC2)[C@H]1O5` [nalmefene, 17-(cyclopropylmethyl)-4,5-alpha-epoxy-6-methylenemorphinan-3,14-diol hydrochloride], the “effect in the management of alcohol dependency” value [1] is listed as “good effect”, the half-life [2] is listed as “longer” and the oral bioavailability [3] is listed as “higher”. The dose-dependent liver toxicity [4] was “absence”.
In the case of `C=C1CC[C@@]2(O)[C@H]3Cc4ccc(O)c5c4[C@@]2(CCN3CC2CC2)[C@H]1O5` [nalmefene hydrochloride dihydrate], the hygroscopic properties [5] is listed as “non-hygroscopic”.
For `O=S(=O)(O)C1(O)CC[C@@]2(O)[C@H]3Cc4ccc(O)c5c4[C@@]2(CCN3CC2CC2)[C@H]1O5` (stereo partly drawn) [bisulfite adduct of naltrexone], the solubility [6] was “more soluble”.
